Series [1] in a line: Water solubility, stepwise addition of water, classed by USP23. The series is classed as physicochemical. The procedure: 3 mg of lenalidomide (Combi-Block, Inc. San Diego, CA, USA) and ribose-lenalidomide were each weighed and placed in a 1.5 mL Eppendorf tube, 0.03 mL of water was added thereto, and then the mixture was vortexed for one minute and then centrifuged at 15,000 rpm for 1 minute, and an undissolved compound was precipitated. When the precipitated compound was visible, 0.03 mL of water was added, and the above process was repeated.
The solubility was determined by Table 1 as defined in United States Pharmacopeia 23 (USP23).

The subject of the next series is multiple myeloma. As to conditions: combination of lenalidomide and dexamethasone; cited from earlier work.
Another series deals with MM.1S cells. The series can be described thus: Tumor cell killing effect, CCK analysis. It is filed as cell-based, human. As to conditions: 0 to 10 μM, 3 days, dissolved in DMSO or D.W. The method, then: To this end, a human multiple myeloma cell line, MM.1S (CRL-2974), was purchased from the American Type Culture Collection (ATCC, Manassas, VA, USA), and incubated using a RPMI1640 medium (Corning, MD, USA) supplemented with a 10% bovine fetal serum (Corning, MD, USA), 100 U/mL penicillin (Corning, MD, USA), and 100 μg/mL streptomycin (Corning, MD, USA) at 37° C. in a 5% CO2 incubator for 24 hours. The cells were seeded at 1×10^4 cells/well in a 96-well plate, incubated for 24 hours, further incubated for 3 days after treatment with 0, 0.005, 0.014, 0.041, 0.123, 0.37, 1.111, 3.333, or 10 μM of ribose-lenalidomide dissolved in DMSO or D.W., and then analyzed using a CCK analysis kit (Dojindo, Japan) according to the manufacturer's instructions.

The next series concerns the target T1, cereblon (CRBN) protein (Homo sapiens, UniProt Q96SW2).
T1 construct: FLAG; purchased BPS Bioscience #79770
The series can be described thus: CRBN binding affinity, Alpha assay of competitive inhibition of CRBN-dBET1 binding. To be noted: compared with the base lenalidomide or pomalidomide. An excerpt:
An immunomodulatory amide-type compound such as lenalidomide is known to act by binding to the cereblon (CRBN) protein. Therefore, the binding affinity of ribose-lenalidomide for the cereblon (CRBN) protein was compared with that of its base, lenalidomide (Combi-Block, Inc. San Diego, CA, USA), for the cereblon (CRBN) protein.

For the next series, the target named is T2, Aiolos (Homo sapiens, UniProt Q96SW2+Q9UKT9).
T2 construct: endogenous in cells; host or cells: MM.1S (ATCC CRL-2974)
The series can be described thus: Aiolos degradation in MM.1S cells, western blot. It is filed as cell-based. To be noted: 1 μM or 10 μM, 24 hours. The procedure:
(§1) It is known that a thalidomide-based compound binds to an E3 ligase, cereblon (CRBN), and decomposes transcription factors Aiolos and Ikaros as substrates, thereby regulating the function of immune cells. Therefore, to confirm whether ribose-lenalidomide still maintains its immunomodulatory function, the Aiolos and Ikaros degradation effect was compared with its base, lenalidomide.
(§2) After seeding the cells and incubating the cells for 24 hours, each compound was further incubated for 24 hours after treatment with 1 μM or 10 μM of each compound. The cells were lysed in a RIPA buffer containing a protease inhibitor cocktail (Thermo Fisher Scientific) and centrifuged at 14,000 rpm for 15 minutes at 4° C., thereby obtaining a cell extract. The cell extract was loaded at the same amount, separated using SDS-PAGE, and transferred to a PVDF membrane. The protein-transferred membrane was blocked using skim milk, subjected to o/n incubation with a primary antibody at 4° C., and incubated with an HRP-attached secondary antibody at 4° C. for 1 hour. The cells were washed with TBS-T three times between steps. Detection was performed by applying a chemiluminescence reagent (Thermo Fisher Scientific), and confirmation was performed using Chemidoc (iBright CL1000, Invitrogen, CA, USA).

For the next series, the target named is T3, Ikaros (Homo sapiens, UniProt Q13422+Q96SW2).
T3 construct: endogenous in cells; host or cells: MM.1S (ATCC CRL-2974)
The series can be described thus: Ikaros degradation in MM.1S cells, western blot. The series is classed as cell-based. To be noted: 1 μM or 10 μM, 24 hours. The method, then:
as §1, §2
(In general: In western blotting, separated proteins are transferred to a membrane and probed.)

The target of a further series is T4, CK1α (Homo sapiens, UniProt P48729+Q96SW2).
T4 construct: endogenous in cells; host or cells: MM.1S (ATCC CRL-2974)
The series can be described thus: CK1α degradation in MM.1S cells, western blot. It is filed as cell-based. As to conditions: 1 μM or 10 μM, 24 hours. The method, then:
as §2

A further series deals with T5, SALL4 (Homo sapiens, UniProt Q96SW2+Q9UJQ4).
T5 construct: endogenous in cells; host or cells: Tera-1 (ATCC HTB-105)
The series can be described thus: SALL4 degradation in Tera-1 cell line (HTB-105), western blot. The series is classed as cell-based. To be noted: 1 or 10 μM, compared with the base compound. The procedure:
The cell extract was loaded at the same amount, separated using SDS-PAGE, and transferred to a PVDF membrane. The protein-transferred membrane was blocked using skim milk, subjected to o/n incubation with a primary antibody at 4° C., and incubated with an HRP-attached secondary antibody at 4° C. for 1 hour. The cells were washed with TBS-T three times between steps. Detection was performed by applying a chemiluminescence reagent (Thermo Fisher Scientific), and confirmation was performed using Chemidoc (iBright CL1000, Invitrogen, CA, USA).

The subject of series [2] is choroidal neovascularization lesion. The series can be described thus: Macular degeneration treatment effect, laser-induced mouse CNV model (wet AMD). To be noted: for CNV lesion, intravitreal administration: once immediately after laser irradiation, fluorescent staining of blood vessels. The series is classed as in vivo. The method, then: It was intended to confirm the healing efficacy of a lesion in a mouse CNV model, which is a wet senile macular degeneration (wet AMD) model.
To this end, five C57BL/6 (Koatech, Korea) male mice (aged 7 weeks) were used, and after 1 week of acclimation, the 8-week-old mice were anesthetized using ketamine hydrochloride (100 mg/kg, I.P.), and a drop of Mydriacyl (tropicamide) eye drops was placed on the right eye to induce mydriasis. After 3 minutes, the mouse was placed on a stand attached to a slit lamp, and a coverslip was put on the right eye to serve as a contact lens. After illuminating the optic nerve head using the slip lamp, four laser spots (200 mW, 50 μm spot size, 100-ms duration) around the optic nerve head were irradiated using a 532 nm laser device (Irdiex Oculight Tx, USA) attached to the slit lamp.
After forming a choroidal neovascularization lesion as described above, a solution prepared by dissolving ribose-lenalidomide in PBS was administered to the lesion. For intravitreal administration, 1.5 μL of the solution with a concentration of 0.2 μg/mL was administered once immediately after laser irradiation using a 25 μL Hamilton syringe with a 33G needle. Meanwhile, ribose-lenalidomide was dissolved in PBS to have a concentration of 2 mg/mL, prepared in the form of eye drops, administered four times a day, and then 7 days or 14 days after administration, efficacy was confirmed through fluorescent staining of blood vessels.
Fluorescent staining was performed using Heidelberg Spectralis HRA+OCT device (Heidelberg, Germany) equipment, the mouse was anesthetized using ketamine hydrochloride (100 mg/kg, I.P.) and xylazine (10 mg/kg, I.P.), a drop of Mydriacyl (tropicamide) eye drops was placed on the right eye to induce mydriasis, 0.05 mL of 10% fluorescite (Alcon, USA) was administered via I.P. administration to stain blood vessels. Fluorescent images were taken 10 minutes after fluorescite injection.

“Also recorded” adds a separate entry of the source.

As usually defined, the solubility is the concentration that dissolves in the medium under given conditions. A lower solubility goes with little dissolved substance.

Take `Nc1cccc2c1CN(C1CCC(=O)NC1=O)C2=O` (racemic) [lenalidomide, (RS)-3-(4-amino-1-oxo-1,3-dihydro-2H-isoindol-2-yl)piperidine-2,6-dione, reference compound]: in series [1] (D.W.), the “water solubility in words” value is on record as “completely insoluble in water; also recorded: barely dissolved in D.W”. For the same molecule, in the series with multiple myeloma, the disease-free survival period is recorded as 13.4 months and the overall survival period is 38 months.

Regarding `O=C1CCC(N2C(=O)c3cccc(NC[C@H](O)[C@@H](O)[C@H](O)[C@H](O)CO)c3C2=O)C(=O)N1` (stereo partly drawn) [glucose-pomalidomide (type 2)], the “tumor cell killing effect / viability of MM.1S cells” value in the series on MM.1S cells is “not significantly reduced”.

Consider `O=C1CCC(N2Cc3c(/N=C/[C@H](O)[C@H](O)[C@H](O)CO)cccc3C2=O)C(=O)N1` (stereo partly drawn) [ribose-lenalidomide (type 1)], for which the “solubility term based on USP 23” value in [1] (water) is “freely soluble”. The solubility at 1 min in [1] (water, thermodynamic from solid, D.W., no visible precipitate after vortexing and centrifugation) is at least 100 mg/mL. Besides, the CRBN binding affinity result on cereblon (CRBN) protein is on record as “improved binding affinity”. In addition, in the series on MM.1S cells, the “tumor cell killing effect / viability of MM.1S cells” value is “effective in killing MM.1S cells”. Besides, at Aiolos, the Aiolos degradation effect entry was “almost similar to lenalidomide”. Besides, at Ikaros, the Ikaros degradation effect entry was “almost similar to lenalidomide”. Moreover, the CK1α degradation effect entry at CK1α is “almost similar to lenalidomide”. The “SALL4 degradation effect (teratogenic side effect)” value at SALL4 is given as “inhibited SALL4 degradation effect compared to lenalidomide”. Also, in [2] (eye drops 2 mg/mL in PBS, four times a day, 7 or 14 days), the “CNV lesion, eye drop administration” value is on record as “distinct decrease in the lesion”. The “CNV lesion, intravitreal administration” value in [2] is reported as “distinct decrease in the lesion”.

For the molecule `O=C1CCC(N2Cc3c(/N=C/[C@H](O)[C@@H](O)[C@H](O)[C@H](O)CO)cccc3C2=O)C(=O)N1` (stereo partly drawn) [glucose-lenalidomide (type 1)], the “CNV lesion, intravitreal administration” value in [2] was “macular degeneration treatment effect was confirmed”.

The values are drawn from patent publication US20250197438A1, “IMMUNOREGULATORY AMIDE DERIVATIVE WITH IMPROVED MATERIAL PROPERTIES” (AEVIS BIO, INC., priority 2021, published 2025).
